Results published in PubChem BioAssay (NCI).
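Briefly, cells in 96-well plates were exposed to five compound concentrations for 48 h, and endpoints were estimated by linear interpolation. At the GI50, growth is halved. TGI is the concentration that stops growth completely.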

Tests used:
Experiment in all cases: NCI-60 cell line screen, 48 h
[1] = tested on: NCI-H460 lung
[2] = tested on: NCI-H226 lung
[3] = tested on: SF-268 CNS
[4] = tested on: HCT-15 colon
[5] = tested on: MCF7 breast
[6] = tested on: DU-145 prostate
[7] = tested on: BT-549 breast
[8] = tested on: EKVX NSCLC

Row | SMILES | GI50 [1] [µM] | TGI [1] [µM] | GI50 [2] [µM] | TGI [2] [µM] | GI50 [3] [µM] | TGI [3] [µM] | GI50 [4] [µM] | TGI [4] [µM] | GI50 [5] [µM] | TGI [5] [µM] | GI50 [6] [µM] | TGI [6] [µM] | GI50 [7] [µM] | TGI [7] [µM] | GI50 [8] [µM] | TGI [8] [µM]
1 | CC[C@H](C)C(=O)O[C@H]1C[C@H](O)C=C2C=C[C@H](C)[C@H](CC[C@@H](O)C[C@@H](O)CC(=O)O)[C@H]21 | > 100 | > 100 | > 100 | > 100 | > 100 | > 100 | > 100 | > 100 | > 100 | > 100 | > 100 | > 100 | > 100 | > 100 | – | –
2 | Nc1c(C(=O)Nc2cccc(Cl)c2Cl)sc2nc3c(cc12)C(=O)CCC3 | 0.601 | > 100 | > 100 | > 100 | > 100 | > 100 | > 100 | > 100 | > 100 | > 100 | > 100 | > 100 | > 100 | > 100 | – | –
3 | CC(=O)c1cc(O)c2ccccc2c1O | 27 | 76.8 | 17.5 | 33.2 | 18.8 | 33.4 | 20.5 | 44.1 | 14.8 | 36.9 | 18.9 | 33 | 20.1 | 37.2 | 22.1 | 81.2
4 | O=C(O)Cn1cc([N+](=O)[O-])c(=O)c2ccccc21 | – | > 100 | – | > 100 | – | > 100 | – | > 100 | – | > 100 | – | > 100 | – | > 100 | – | –
5 | Cc1ccc(Sc2cc3c(oc2=O)-c2ccccc2OC3O)cc1 (centres undefined) | 22.4 | 54.5 | 30 | 75 | 30.3 | 88.6 | 28.3 | 76.3 | 35.9 | > 100 | 21.8 | 45.2 | 18.7 | 37.4 | 21.9 | 43.9
6 | Cc1coc2c1C(OC(=O)C(C)C)C1(C)C(C)CCC(O)C1C2=O (centres undefined) | – | > 100 | – | > 100 | – | > 100 | – | > 100 | – | > 100 | – | > 100 | – | > 95 | – | > 100
7 | C[C@@H]1COCCN1c1cc(C2(O)C[C@H]3CC[C@@H](C2)O3)c2cnn(-c3ccn[nH]3)c2n1 (some centres undefined) | 0.0334 | 1.43 | 0.0448 | 0.528 | 0.111 | 2.04 | 0.0394 | > 42.2 | < 0.0106 | 1.38 | 0.0553 | 2.46 | 0.049 | 0.784 | 0.139 | 0.845
8 | C[C@@H](Nc1nc(Nc2ccc(F)c(Cl)c2)nc2ccccc12)C1CC1 | 3.12 | 19.3 | 6.37 | 35.9 | 6.43 | 26.8 | 2.39 | 8.14 | 2.84 | 13.3 | 7.19 | 20.5 | 2.51 | 7.3 | 2.72 | 12.4
9 | CCN(Cc1c(Cl)cccc1Cl)c1ccc(CO)c(Cl)c1 | 0.171 | 13.9 | 0.0224 | 0.071 | 15 | 28.8 | 10.4 | 23.5 | 0.146 | 13.4 | 14.4 | 27.9 | 16.2 | 30.4 | – | –
10 | Cn1cc(C2=C(N3CCOCC3)C(=O)NC2=O)c2ccccc21 | > 25 | > 25 | > 25 | > 25 | > 25 | > 25 | > 25 | > 25 | > 25 | > 25 | > 25 | > 25 | > 25 | > 25 | – | –
11 | CC#Cc1nc(Nc2cc(C)[nH]n2)c2ccccc2n1 | 4.53 | 20.3 | 2.21 | 11.1 | 4.66 | 20.5 | 2.75 | 12.8 | 3.32 | 95.7 | 7.47 | 55 | 4.9 | 23.2 | – | –
12 | COc1cc2c3c(n(C)c(=O)c2cc1OC)-c1cc2c(cc1/C3=C\CCNCCCN)OCO2 | 0.853 | 20.3 | 0.987 | 5.02 | 2.43 | 11.8 | 16.9 | 39.6 | 2.77 | 13.4 | – | – | 4.65 | 21.1 | 3.83 | 18
13 | O=C1C(Cl)=C(Nc2cccc(O)c2)C(=O)N1Cc1ccc(Cl)cc1Cl | 11.4 | 29.7 | 1.11 | 20.4 | 6.09 | 21.9 | 7.45 | 22.6 | 10.9 | 30.7 | 11.3 | 24.2 | – | – | 10 | 26.6
14 | O=C(CCc1ccc(O)cc1)N/N=C/c1cc(Br)ccc1O | 2.93 | 14.2 | – | – | 2.23 | 24.4 | 2 | > 100 | 3.31 | 90.2 | 3.4 | > 100 | 4.19 | 44.8 | – | –
15 | O=C(O)c1cc2ccccc2c2c1C(=O)c1ccccc1-2 | – | > 100 | – | > 100 | – | > 100 | – | > 100 | – | > 100 | – | > 100 | – | > 100 | – | –
16 | O=C(CCCCC(=O)N/N=C\c1ccccc1O)N/N=C\c1ccccc1O | 3.14 | > 100 | 3.12 | > 100 | 1.72 | > 100 | 2.02 | > 100 | – | – | 5.22 | > 100 | 32 | > 100 | 7.75 | > 100
17 | COc1ccc2ccc3oc([N+](=O)[O-])cc3c2c1 | 0.114 | 0.405 | 0.296 | 3.22 | 0.201 | 1.69 | 0.218 | 1.27 | 0.226 | 2.34 | 0.123 | 2.14 | 0.194 | 0.606 | – | –
